The values that follow come from ChEMBL document CHEMBL5154820 (Eur J Med Chem, 2022).

Structures are written as SMILES. Calls of active or inactive are those of the source. No cut-off for these calls is given here. A value given as a limit tells only on which side of the number the result lay.

One data set relates to HeLa. The experiment in a line: Antiproliferation activity against human HeLa cells assessed as reduction in cell growth measured after 48 to 72 hrs by CCK-8 assay. It is filed as functional, cell-based.
In a further data set the test system is SiHa. The experiment in a line: Antiproliferation activity against human SiHa cells assessed as reduction in cell growth measured after 48 to 72 hrs by CCK-8 assay. It is filed as functional, cell-based.
Data set [1] is described as follows: Antiproliferation activity against human MS751 cells assessed as reduction in cell growth measured after 48 to 72 hrs by CCK-8 assay. It is filed as functional, cell-based.
The next data set deals with Tubulin (Sus scrofa, UniProt P02554+P02550). The experiment in a line: Inhibition of pig brain tubulin polymerization by spectrophotometeric analysis. Further details: species or system Sus scrofa domesticus.
Data set [2] is described as follows: Retention time of the compound. It is filed as physicochemical.
The target in data set [3] is T1, Tubulin beta (Homo sapiens) (UniProt P68371+Q9H4B7+Q13509+P04350+Q3ZCM7+P07437+Q13885+Q9BVA1+Q9BUF5+A6NNZ2). The experiment in a line: Binding affinity to beta-tubulin colchicine binding site in human HeLa cells assessed as decrease of adduct formation by measuring gray value measured at 25 uM incubated for 2 hrs followed by addition of EBI measured after 1.5 hrs by EBI competition based Western blotting analysis. It counts as cell-based. The conditions noted are these: time 3.5 hrs.

Data set [4] addresses T1, Tubulin beta (Homo sapiens). The experiment in a line: Binding affinity to beta-tubulin colchicine binding site in human HeLa cells assessed as decrease of adduct formation by measuring gray value measured at 5 uM incubated for 2 hrs followed by addition of EBI measured after 1.5 hrs by EBI competition based Western blotting analysis. It counts as cell-based. The conditions noted are these: time 3.5 hrs.

Another data set has as its system HCT-116. The experiment in a line: Antiproliferation activity against human HCT-116 cells assessed as reduction in cell growth. It is filed as functional, cell-based.
Another data set concerns A549. The experiment in a line: Antiproliferation activity against human A549 cells assessed as reduction in cell growth. It counts as functional, cell-based.
For the next data set, the species on record is Bos taurus. The experiment in a line: Inhibition of calf brain tubulin polymerization upto 50 uM measured after 40 mins by spectrophotometric analysis.

As to `COc1cc(-c2ncncc2-c2ccc(B(O)O)cc2)cc(OC)c1OC`, the IC50 turned out to be 4000 nM with HeLa, 17500 nM in the data set on SiHa and 32400 nM in data set [1].

As to `CCOc1ccc(-c2cncnc2-c2cc(OC)c(OC)c(OC)c2)cc1C(F)(F)F`, the IC50 in the data set with HeLa is 790 nM; in the data set on SiHa, 20000 nM; in [1], 25000 nM; against Tubulin, more than 100000 nM.

As to `CCOc1ccc(-c2cncnc2-c2cc(OC)c(OC)c(OC)c2)cc1F`, the concentration for half-maximal inhibition (IC50) in the data set with HeLa stood at 470 nM; in the data set with SiHa, 800 nM; in [1], 750 nM; at Tubulin it was 17100 nM.

Regarding `COc1cc(-c2ncncc2-c2ccc(C(=O)N(C)C)cc2)cc(OC)c1OC`, the concentration for half-maximal inhibition (IC50) was determined as 790 nM in the data set on HeLa, 20200 nM with SiHa and 1370 nM in [1].

Turning to `COc1ccc(-c2cncnc2-c2cc(OC)c(OC)c(OC)c2)cc1`, the half-inhibitory concentration (IC50) with HeLa was found to be 1140 nM; with SiHa it was 2850 nM; in [1], 1300 nM; against Tubulin it was 71200 nM.

Regarding `COc1ccc(-c2cncnc2-c2cc(OC)c(OC)c(OC)c2)cc1Cl`, the IC50 was 320 nM in the data set on HeLa, 1330 nM in the data set on SiHa, 790 nM in data set [1] and 53100 nM against Tubulin. The molecule further registered a Retention_time in data set [2] of 2.23 min.

Take `COc1cc(-c2ncncc2-c2ccc(SC)cc2)cc(OC)c1OC`: the half-maximal inhibitory concentration (IC50) in the data set with HeLa amounted to 220 nM; in the data set with SiHa it was 560 nM; in [1] it was 130 nM; at Tubulin, 9300 nM.

As to `CNC(=O)c1ccc(-c2cncnc2-c2cc(OC)c(OC)c(OC)c2)cc1`, the IC50 with HeLa came out at 1470 nM; in the data set on SiHa it was 10900 nM; in data set [1] it was 13200 nM.

Turning to `COc1cc(-c2ncncc2-c2ccc(C(N)=O)cc2)cc(OC)c1OC`, the IC50 (in the data set with HeLa; in the data set on SiHa; in [1]) was more than 100000 nM each time.

Take `CC[C@]1(O)C[C@H]2CN(CCc3c([nH]c4ccccc34)[C@@](C(=O)OC)(c3cc4c(cc3OC)N(C=O)[C@H]3[C@@](O)(C(=O)OC)[C@H](OC(C)=O)[C@]5(CC)C=CCN6CC[C@]43[C@@H]65)C2)C1`: the Activity is 0.98 in data set [3] and 1.12 in data set [4].

As for `COc1cc2c(c(OC)c1OC)-c1ccc(OC)c(=O)cc1[C@@H](NC(C)=O)CC2` [COLCHICINE], the IC50 was determined as 42 nM in the data set with HeLa, 45 nM with SiHa and 35 nM in data set [1].

`COc1cc(-c2ncncc2-c2ccc3cc[nH]c3c2)cc(OC)c1OC`: the IC50 with HeLa was 770 nM; in the data set with SiHa it was 2180 nM; in data set [1] it was 1090 nM; against Tubulin, 62800 nM.

Turning to `COc1ccc(-c2cncnc2-c2cc(OC)c(OC)c(OC)c2)cc1F`, the IC50 in the data set with HeLa was found to be 500 nM; with SiHa it was 3340 nM; in data set [1] it was 1100 nM; on Tubulin, 29900 nM.

Consider `COc1cc(-c2ncncc2-c2cccc3ccccc23)cc(OC)c1OC`, for which the IC50 in the data set on HCT-116 and with A549 was 2500 nM in each case. For the same molecule, in the data set filed under Bos taurus, the outcome was Active.

With `COc1ccc(-c2cncnc2-c2cc(OC)c(OC)c(OC)c2)nc1`, the 50% inhibitory concentration (IC50) in the data set on HeLa worked out at 470 nM; in the data set on SiHa, 1750 nM; in [1] it was 830 nM; against Tubulin it was 63700 nM.

With `COc1cc(-c2ncncc2-c2ccc(OC(C)C)cc2)cc(OC)c1OC`, the IC50 in the data set with HeLa worked out at 8360 nM; in the data set on SiHa, 9970 nM; in [1] it was 33900 nM.

As for `CCOC(=O)Oc1cc(-c2cncnc2-c2cc(OC)c(OC)c(OC)c2)ccc1OC`, the half-inhibitory concentration (IC50) in the data set on HeLa was 650 nM; in the data set on SiHa, 1890 nM; in data set [1], 780 nM; at Tubulin, more than 100000 nM.

As for `CCSc1ccc(-c2cncnc2-c2cc(OC)c(OC)c(OC)c2)cc1`, the half-inhibitory concentration (IC50) with HeLa was found to be 370 nM; with SiHa, 1030 nM; in data set [1], 1560 nM.

For the molecule `CCOc1ccc(-c2cncnc2-c2cc(OC)c(OC)c(OC)c2)cc1`, the 50% inhibitory concentration (IC50) with HeLa came to 250 nM; in the data set on SiHa, 640 nM; in data set [1], 220 nM; on Tubulin it was 3700 nM.

For the molecule `COc1cc(-c2ncncc2-c2ccc(OCC(F)(F)F)cc2)cc(OC)c1OC`, the half-inhibitory concentration (IC50) stood at 10200 nM in the data set on HeLa, 33300 nM in the data set on SiHa and 9000 nM in data set [1].

Turning to `COc1ccc(-c2cncnc2-c2cc(OC)c(OC)c(OC)c2)cc1O`, the IC50 in the data set on HeLa was 280 nM; with SiHa, 2750 nM; in data set [1], 830 nM; against Tubulin, 13400 nM.

In the case of `COc1cc(-c2ncncc2-c2ccc(Br)cc2)cc(OC)c1OC`, the concentration for half-maximal inhibition (IC50) in the data set on HeLa was 500 nM; in the data set with SiHa, 2960 nM; in data set [1] it was 2840 nM.

As to `COc1cc(-c2ncncc2-c2ccc3c(c2)OCO3)cc(OC)c1OC`, the concentration for half-maximal inhibition (IC50) was 1160 nM with HeLa, 5400 nM with SiHa and 1360 nM in [1].
